Results from ChEMBL document CHEMBL1201862, “PubChem BioAssay data set” (2004).
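A five-concentration, 48-hour dose response in 96-well plates underlies each endpoint, interpolated linearly between surrounding concentrations. Here, GI50 denotes the concentration required for 50% inhibition of growth.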 Activity calls are given as the source filed them. Rule as the data show it: active = GI50 up to about 1.1 µM and inactive = higher.

How the values were obtained:
Assay in all cases: NCI tumour cell line growth inhibition, 48 h
[1] = test system: A549
[2] = test system: SN12C
[3] = test system: HCT-15
[4] = test system: SNB-19
[5] = test system: T47D
[6] = test system: UACC-257
[7] = test system: OVCAR-5
[8] = test system: LOX IMVI
[9] = test system: Malme-3M
[10] = test system: SR
[11] = test system: SK-MEL-2
[12] = test system: HT-29
[13] = test system: UO-31
[14] = test system: M14
[15] = test system: CCRF-CEM
[16] = test system: RXF 393
[17] = test system: EKVX
[18] = test system: IGROV-1
[19] = test system: MDA-MB-231
[20] = test system: SF-295

**Q.** What does the source list for `O=C1c2cc(Br)ccc2-c2ccc3c4ccc5c6c(ccc(c7ccc1c2c73)c64)C(=O)c1cc(Br)ccc1-5`?
**A.** GI50 [1]: > 100 µM (inactive); GI50 [2]: > 100 µM (inactive); GI50 [3]: > 100 µM; GI50 [4]: > 100 µM (inactive); GI50 [5]: > 100 µM (inactive); GI50 [6]: > 100 µM (inactive); GI50 [7]: > 100 µM (inactive); GI50 [8]: > 100 µM (inactive); GI50 [9]: > 100 µM (inactive); GI50 [10]: 2.28 µM (inactive); GI50 [11]: > 100 µM (inactive); GI50 [12]: > 100 µM (inactive); GI50 [13]: > 100 µM (inactive); GI50 [14]: > 100 µM (inactive); GI50 [15]: 0.787 µM (active); GI50 [16]: > 100 µM (inactive); GI50 [17]: > 100 µM (inactive); GI50 [18]: > 100 µM (inactive); GI50 [19]: > 100 µM (inactive)

**Q.** For `O=C(O)C(=Cc1ccnc2ccccc12)C(=O)O`, which GI50 [1] is on record?
**A.** Its GI50 is > 100 µM (inactive).

**Q.** What about the GI50 [2] of the same compound?
**A.** The GI50 was > 100 µM (inactive).

**Q.** What about the GI50 [3] of the same compound?
**A.** Its GI50 is over 100 µM.

**Q.** And the GI50 [4]?
**A.** The GI50 was > 100 µM (inactive).

**Q.** What about the GI50 [5] of the same compound?
**A.** The GI50 was > 100 µM (inactive).

**Q.** And the GI50 [6]?
**A.** The GI50 was > 100 µM (inactive).

**Q.** What about the GI50 [7] of the same compound?
**A.** Its GI50 is > 100 µM (inactive).

**Q.** And the GI50 [8]?
**A.** Its GI50 is > 100 µM (inactive).

**Q.** And the GI50 [9]?
**A.** Its GI50 is > 100 µM (inactive).

**Q.** What about the GI50 [10] of the same compound?
**A.** The GI50 was > 100 µM (inactive).

**Q.** And the GI50 [11]?
**A.** The GI50 was > 100 µM (inactive).

**Q.** And the GI50 [12]?
**A.** Its GI50 is > 100 µM (inactive).

**Q.** And the GI50 [14]?
**A.** The GI50 was > 100 µM (inactive).

**Q.** And the GI50 [15]?
**A.** The GI50 was > 100 µM (inactive).

**Q.** What about the GI50 [16] of the same compound?
**A.** Its GI50 is > 100 µM (inactive).

**Q.** What about the GI50 [17] of the same compound?
**A.** The GI50 was > 100 µM (inactive).

**Q.** And the GI50 [18]?
**A.** The GI50 was > 100 µM (inactive).

**Q.** And the GI50 [20]?
**A.** Its GI50 is > 100 µM (inactive).

**Q.** What about the GI50 [19] of the same compound?
**A.** The GI50 was > 100 µM (inactive).

**Q.** For `Cc1ccc(S(=O)(=O)ON2C(=O)c3c(N)c(C#N)c(-c4ccccc4)c(-c4ccccc4)c3C2=O)cc1`, which GI50 [1] is on record?
**A.** The GI50 was 19.4 µM (inactive).

**Q.** And the GI50 [2]?
**A.** The GI50 was 18.1 µM (inactive).

**Q.** And the GI50 [3]?
**A.** The GI50 was 17.2 µM.

**Q.** What about the GI50 [4] of the same compound?
**A.** The GI50 was 24 µM (inactive).

**Q.** What about the GI50 [5] of the same compound?
**A.** Its GI50 is 18.2 µM (inactive).

**Q.** And the GI50 [6]?
**A.** The GI50 was 18.6 µM (inactive).

**Q.** And the GI50 [7]?
**A.** The GI50 was 18 µM (inactive).

**Q.** What about the GI50 [8] of the same compound?
**A.** Its GI50 is 15.8 µM (inactive).

**Q.** What about the GI50 [9] of the same compound?
**A.** The GI50 was 21.5 µM (inactive).

**Q.** What about the GI50 [10] of the same compound?
**A.** Its GI50 is 8.39 µM (inactive).

**Q.** And the GI50 [11]?
**A.** The GI50 was 17.1 µM (inactive).

**Q.** What about the GI50 [12] of the same compound?
**A.** The GI50 was 19.1 µM (inactive).

**Q.** And the GI50 [14]?
**A.** Its GI50 is 13.6 µM (inactive).

**Q.** And the GI50 [15]?
**A.** Its GI50 is 3.16 µM (inactive).

**Q.** What about the GI50 [16] of the same compound?
**A.** Its GI50 is 10.4 µM (inactive).

**Q.** And the GI50 [17]?
**A.** Its GI50 is 14.6 µM (inactive).

**Q.** What about the GI50 [18] of the same compound?
**A.** The GI50 was 15.8 µM (inactive).

**Q.** What about the GI50 [20] of the same compound?
**A.** Its GI50 is 20 µM (inactive).

**Q.** What about the GI50 [19] of the same compound?
**A.** Its GI50 is 19.3 µM (inactive).

**Q.** How did the GI50 [1] turn out when `CCOC(=O)CCC(NC(=O)c1ccc(Nc2nc3ccccc3n3cccc23)cc1)C(=O)OCC` (stereo not given) was run?
**A.** The GI50 was 39.6 µM (inactive).

**Q.** What about the GI50 [3] of the same compound?
**A.** The GI50 was 29.7 µM.

**Q.** What about the GI50 [4] of the same compound?
**A.** The GI50 was 42.1 µM (inactive).

**Q.** And the GI50 [5]?
**A.** Its GI50 is < 0.01 µM (active).

**Q.** And the GI50 [6]?
**A.** Its GI50 is 26.2 µM (inactive).

**Q.** What about the GI50 [7] of the same compound?
**A.** The GI50 was 45.6 µM (inactive).

**Q.** And the GI50 [8]?
**A.** The GI50 was 26.1 µM (inactive).

**Q.** And the GI50 [9]?
**A.** Its GI50 is 37.2 µM (inactive).

**Q.** What about the GI50 [10] of the same compound?
**A.** The GI50 was 15.3 µM (inactive).

**Q.** What about the GI50 [11] of the same compound?
**A.** Its GI50 is 20 µM (inactive).

**Q.** What about the GI50 [12] of the same compound?
**A.** Its GI50 is 17.9 µM (inactive).

**Q.** And the GI50 [13]?
**A.** Its GI50 is 44.9 µM (inactive).

**Q.** What about the GI50 [14] of the same compound?
**A.** Its GI50 is 51.6 µM (inactive).

**Q.** What about the GI50 [15] of the same compound?
**A.** The GI50 was 54.8 µM (inactive).

**Q.** And the GI50 [16]?
**A.** Its GI50 is 12.2 µM (inactive).

**Q.** And the GI50 [17]?
**A.** Its GI50 is 41.5 µM (inactive).

**Q.** And the GI50 [18]?
**A.** The GI50 was 35.5 µM (inactive).

**Q.** What about the GI50 [20] of the same compound?
**A.** The GI50 was 25.2 µM (inactive).

**Q.** And the GI50 [19]?
**A.** The GI50 was 21.5 µM (inactive).

**Q.** What does the source list for `CN(C)c1ccc(/C=C2\N=C(c3ccccc3)N(/N=C3\C(=O)Nc4ccccc43)C2=O)cc1`?
**A.** GI50 [1]: 74.1 µM (inactive); GI50 [2]: 56.9 µM (inactive); GI50 [3]: 61.5 µM; GI50 [4]: > 100 µM (inactive); GI50 [5]: 41.6 µM (inactive); GI50 [6]: 85.3 µM (inactive); GI50 [7]: > 100 µM (inactive); GI50 [8]: 28.8 µM (inactive); GI50 [9]: 45.9 µM (inactive); GI50 [10]: 27 µM (inactive); GI50 [11]: 37.7 µM (inactive); GI50 [12]: 53.8 µM (inactive); GI50 [13]: 36 µM (inactive); GI50 [14]: 91.4 µM (inactive); GI50 [15]: 37.2 µM (inactive); GI50 [16]: 45.1 µM (inactive); GI50 [17]: 27 µM (inactive); GI50 [18]: 25.9 µM (inactive); GI50 [20]: 69.8 µM (inactive); GI50 [19]: 92.5 µM (inactive)

**Q.** With `C=C1CCCCCCCCCCC12SCCC2CCCCSC` (stereo not given) as the compound, how does the GI50 [1] read?
**A.** Its GI50 is 34.3 µM (inactive).

**Q.** What about the GI50 [2] of the same compound?
**A.** Its GI50 is 24.3 µM (inactive).

**Q.** And the GI50 [3]?
**A.** The GI50 was 26 µM.

**Q.** What about the GI50 [4] of the same compound?
**A.** The GI50 was 21.8 µM (inactive).

**Q.** What about the GI50 [5] of the same compound?
**A.** Its GI50 is 17.9 µM (inactive).

**Q.** What about the GI50 [6] of the same compound?
**A.** The GI50 was 26.1 µM (inactive).

**Q.** What about the GI50 [7] of the same compound?
**A.** Its GI50 is 20 µM (inactive).

**Q.** And the GI50 [8]?
**A.** Its GI50 is 19.5 µM (inactive).

**Q.** What about the GI50 [9] of the same compound?
**A.** The GI50 was 19.7 µM (inactive).

**Q.** What about the GI50 [10] of the same compound?
**A.** The GI50 was 33.1 µM (inactive).

**Q.** What about the GI50 [11] of the same compound?
**A.** Its GI50 is 17.5 µM (inactive).

**Q.** And the GI50 [12]?
**A.** Its GI50 is 22.3 µM (inactive).

**Q.** What about the GI50 [13] of the same compound?
**A.** Its GI50 is 35 µM (inactive).

**Q.** And the GI50 [14]?
**A.** Its GI50 is 19.9 µM (inactive).

**Q.** And the GI50 [16]?
**A.** The GI50 was 29.2 µM (inactive).

**Q.** And the GI50 [17]?
**A.** Its GI50 is 34.6 µM (inactive).

**Q.** And the GI50 [18]?
**A.** The GI50 was 22.5 µM (inactive).

**Q.** What about the GI50 [20] of the same compound?
**A.** Its GI50 is 19.9 µM (inactive).

**Q.** And the GI50 [19]?
**A.** The GI50 was 19.9 µM (inactive).
